Measurements as given in paper PMC10675445, “Enolase Inhibitors as Early Lead Therapeutics against Trypanosoma brucei” (Pathogens, 2023).
Like-named read-outs stand apart in the source and are kept apart here.

Experiments:
T. brucei ENO (TbENO) = T. brucei ENO (TbENO) (Trypanosoma brucei brucei, UniProt Q38BV6); experiment: Recombinant TbENO coupled enzyme assay; format: biochemical
Experimental: Recombinant ENO and ENO Assays—Recombinant TbENO was expressed and purified using an approach modified from the purification of another trypanosome glycolytic enzyme. Briefly, the full-length open reading frame was cloned from Trypanosoma brucei brucei (a 427 strain) genomic DNA into the bacterial expression vector pQE-30 (Qiagen, MD, USA). This plasmid was transformed into M15pREP cells and protein expression induced with 0.25 mM isopropyl-b-d-1-thiogalactopyranoside (IPTG) overnight at 37 °C. Protein was purified on Ni-NTA agarose (Qiagen) as described.
ENO assays were performed in triplicate using a coupled reaction to measure enzyme activity. In short, enzyme (~50 nM) in assay buffer (100 mM HEPES, pH 8.0, 3.3 mM MgSO4, 120 mM KCl, 1.75 mM ADP, 1 U of pyruvate kinase/lactate dehydrogenase, and 0.4 mM NADH) was added to black 96-well plates. Reactions were initiated by the addition of substrate (3.75 mM 2-PG) and the rate of reduction in fluorescence emission at A460 was measured after excitation at A360 to monitor NAD^+ production. Assays were scored on a Biotek Synergy H1 microplate reader and kinetic analyses were performed with Prism 9.0 (GraphPad Software, San Diego, CA, USA) using the Michaelis–Menten model. To assess the impact of different pH on enzyme activity, the HEPES […] in the standard buffer was replaced with Good’s buffers 2-morpholinoethanesulfonic acid (MES, pH 6.5), HEPES (pH 7.0 to pH 8.5), or sodium borate (pH 9.0). For assays involving inhibitors, compounds (in DMSO) were incubated with the enzyme in assay buffer (pH 8.0) for 15 min prior to initiation of the reaction. All assays were performed in triplicate with vehicle control (DMSO) included.

T. brucei BSF parasites = experiment: BSF viability assay (CellTiter Blue); format: cell-based, Trypanosoma brucei brucei
Experimental: (§1) Trypanosome growth, viability assays, and Western blotting—T. brucei brucei 90-13 BSF parasites were cultured in HMI-9 medium supplemented with 10% heat-inactivated FBS and 10% Serum Plus (Sigma-Aldrich, St. Louis, MO, USA) at 37 °C in 5% CO2, while T. brucei brucei PF 29-13 were cultured in SDM-79 supplemented with 10% heat-inactivated FBS [16]. For BSF viability assays, parasites (1 × 10^5/mL) were seeded into 384-well black polystyrene plates in the presence of a compound or equivalently diluted carrier. CellTiter Blue reagent (Promega, Madison, WI, USA) was added after two days of culture, the plates incubated an additional 1 h, and fluorescence emission at A585 measured after excitation at A546. For PF viability assays, 1 × 10^6 parasites in standard medium, or 5 × 10^6 parasites in glucose-free medium, were introduced into black 96-well plates in standard culture medium in the presence of a compound or carrier, with CellTiter Blue reagent added after 48 h of culture. Plates were incubated for 1 h and fluorescence emission scored as described for BSF. Fluorescence values were used to calculate percent cell growth inhibition (based on controls) for each concentration of compound tested. Averages of the triplicates were calculated and fit to dose-response curves for the determination of EC50 values, using Prism 9.0 (GraphPad Software, San Diego, CA, USA).

HsENO2 = tested on: HsENO2; parameters: method as in PMID 33230295; settings: cited from earlier work; for IC50: included for comparative purposes, source not given
ENO1-deficient tumors = tested on: ENO1-deficient tumors; parameters: method as in PMID 33230295; settings: rodent model; cited from earlier work
[1] = parameters: method as in PMID 33230295; settings: mammalian animal models, including non-human primates; cited from earlier work
T. brucei PF parasites = experiment: PF viability assay (CellTiter Blue); format: cell-based; settings: Trypanosoma brucei, 48 h
Experimental: as §1

BSF parasites [2] = experiment: Trypanosome ROS assay (flow cytometry); format: cell-based, Trypanosoma brucei; settings: 30 min, POMHEX 50 or 100 µM, H2O2 125 µM
Experimental: BSF parasites (5 × 10^6 cells) were pelleted (800 × g, 10 min) then resuspended in PBS supplemented with 0.1% glucose (PBSg). Samples were treated with either ROS stain (Total Reactive Oxygen Species (ROS) Assay Kit 520 nm, Invitrogen) or DMSO and then incubated at 37 °C in 5% CO2 for 60 min. Samples were then treated with 125 μM H2O2, 50 μM POMHEX, 100 μM POMHEX, or equal volume DMSO, incubated for 30 min, and analyzed on a CytoFLEX flow cytometer (Beckman Coulter). Events (10,000) were recorded and analyzed using FCSexpress software. Median fluorescence intensity (MFI) was calculated, and Welch’s t-tests were performed (ns: not statistically significant, * p < 0.05, ** p < 0.01, *** p < 0.001). Each experiment was performed with biological triplicates in technical triplicates.

BSF parasites [3] = experiment: Propidium iodide exclusion viability (flow cytometry); format: cell-based, Trypanosoma brucei; settings: 30 min
Experimental: To monitor apoptotic-like responses, 5 × 10^6 parasites were collected, resuspended in fresh media containing 125 μM H2O2, 5 μM POMHEX, 50 μM POMHEX, 100 μM POMHEX, or equal volume of DMSO, and incubated at 37 °C in 5% CO2 for 30 min. Cells were washed once in PBS, resuspended in binding buffer (10 mM HEPES/NaOH, pH 7.4, 140 mM NaCl, 2.5 mM CaCl2) with propidium iodide (Enzo Life Sciences) and incubated for 15 min, followed by cytometry. Each experiment was performed with technical triplicates of biological triplicates. Median fluorescence intensity (MFI) was calculated, and Welch’s t-tests were performed (ns: not statistically significant, * p < 0.05, ** p < 0.01, *** p < 0.001).

T. brucei aldolase = experiment: Aldolase western blot of BSF lysates; format: cell-based, Trypanosoma brucei; settings: POMHEX 6 µM, 2.5 h
Text: (§2) The following supporting information can be downloaded at: https://www.mdpi.com/article/10.3390/pathogens12111290/s1, Figure S1: Multiple sequence alignment of TbENO, HsENO2, and NfENO. Amino acid sequences of TbENO (Tb927.10.2890), HsENO2 (ENOG, P09104), and NfENO (NfTY_054390) were aligned using Clustal Omega (EMBL-EBI). Similar amino acids are indicated with (:) and absolute conservation of residues by (*). Figure S2: BSF morphology rapidly changes upon POMHEX treatment. For imaging, BSF (427 strain parasites) parasites bearing the transgene pXS6 AldoPTSeYFP (left) or PF pXS2 AldoPTSeYFP (PF 29-13) (right) for constitutive glycosomal expression of eYFP were cultured for 2.5 hr in DMSO vehicle or POMHEX (at 6 µM, a concentration equivalent to 10-fold the EC50 value). Cells were then washed, fixed (4% paraformaldehyde), and imaged on a on Leica 8 DMi8 microscope. Scale bar = 10 µm. Figure S3: The levels of the glycosome-resident protein aldolase change in response to POMHEX treatment. […] Western blots were visualized on a Analytik Jena UVP ChemStudio imager with Visual works imaging software and bands were quantitated using ImageJ. Percent change in aldolase amount was scored after normalization to loading by quantification of a prominent Coomassie-stained band (likely VSG). […] Cell viability was scored by propidium iodide exclusion, followed by analysis of 10,000 cells in the PC5.5 channel.

[4] = tested on: BSF parasites (BSF pXS6-eYFP-PTS1); experiment: Imaging of BSF cell morphology; format: cell-based, Trypanosoma brucei; settings: 6 µM, 2.5 h
Text: as §2

PF parasites (PF 29-13) = experiment: Imaging of PF cellular and glycosomal morphology; format: cell-based, Trypanosoma brucei; settings: 6 µM, 2.5 h
Text: as §2

[5] = recombinant TbENO ~50 nM, pH 8.0, 15 min preincubation, 3.75 mM 2-PG, read-out: TbENO IC50
[6] = Trypanosoma brucei, 48 h, BSF, two days of culture, read-out: T. brucei BSF EC50
[7] = Trypanosoma brucei, 48 h, read-out: T. brucei BSF EC50, BSF, two days of culture

Sequence of T. brucei ENO (TbENO) (Q38BV6 entry or part of it): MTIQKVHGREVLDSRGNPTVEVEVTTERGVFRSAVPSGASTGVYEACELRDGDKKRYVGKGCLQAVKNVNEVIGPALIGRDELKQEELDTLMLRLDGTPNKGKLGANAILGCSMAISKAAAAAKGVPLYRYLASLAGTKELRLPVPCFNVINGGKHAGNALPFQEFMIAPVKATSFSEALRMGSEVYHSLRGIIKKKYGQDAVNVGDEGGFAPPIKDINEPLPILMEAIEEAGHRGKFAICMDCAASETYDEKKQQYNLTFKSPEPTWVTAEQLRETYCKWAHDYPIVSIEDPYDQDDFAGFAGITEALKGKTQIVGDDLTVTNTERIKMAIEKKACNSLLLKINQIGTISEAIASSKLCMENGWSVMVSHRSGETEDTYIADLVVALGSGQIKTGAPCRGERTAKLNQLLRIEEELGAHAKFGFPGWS

In the case of `O=C1C(P(=O)(O)O)CCCCN1OCc1ccccc1` (stereo not drawn) [Benzyl-HEPTA], the IC50 (T. brucei ENO (TbENO); [5]) is given as over 10 µM, the EC50 (T. brucei BSF parasites; [6]) is given as over 10 µM and the IC50 (HsENO2) is given as over 10 µM.
With `O=C1C(P(=O)(O)O)CCN1OCc1ccccc1` (stereo not drawn) [Benzyl-deoxy-SF2312] the “activity against TbENO at 10 µM” value (T. brucei ENO (TbENO); at 10 µM) was “not active”, the IC50 (T. brucei ENO (TbENO); [5]) was over 10 µM and the EC50 (T. brucei BSF parasites; [6]) was over 10 µM. For the same compound, the IC50 (HsENO2) was over 10 µM.
In the case of `O=C1C(P(=O)(O)O)CCCN1OCc1ccccc1` (stereo not drawn) [BenzylHEX], the IC50 (T. brucei ENO (TbENO); [5]) is given as over 10 µM, the EC50 (T. brucei BSF parasites; [6]) is given as over 10 µM and the “activity against ENO2 (in words)” value (HsENO2) is given as “not active”. The IC50 (HsENO2) was over 10 µM.
In the case of `O=C1C(P(=O)(O)O)CCN1O` (stereo not drawn) [Deoxy-SF2312, (1-hydroxy-2-oxopyrrolidin-3-yl) phosphonic acid], the IC50 (T. brucei ENO (TbENO)) is given as 0.6 ± 0.23 µM, the EC50 (T. brucei BSF parasites; [7]) is given as over 10 µM and the IC50 (HsENO2) is given as 0.1 ± 0.04 µM.
With `O=C1C(P(=O)(O)O)CCCCN1O` (stereo not drawn) [HEPTA, (1-hydroxy-2-oxoazepan-3-yl) phosphonic acid] the IC50 (T. brucei ENO (TbENO)) was over 10 µM, the “activity against TbENO (in words)” value (T. brucei ENO (TbENO)) was “not active” and the EC50 (T. brucei BSF parasites; [7]) was over 10 µM. The IC50 (HsENO2) was 5.8 ± 0.88 µM.
For `O=C1C(P(=O)(O)O)CCCN1O` (stereo not drawn) [HEX, (1-hydroxy-2-oxopiperidin-3-yl) phosphonic acid], the IC50 (T. brucei ENO (TbENO)) was 2.1 ± 1.1 µM, the EC50 (T. brucei BSF parasites; [7]) was 10 ± 1 µM and the EC50 (T. brucei BSF parasites; Trypanosoma brucei, read-out: T. brucei BSF EC50, HEX with formaldehyde, with 2 molar equivalent formaldehyde) was 10 ± 1.4 µM. For the same compound, the EC50 (T. brucei BSF parasites; read-out: T. brucei BSF EC50, BSF, two days of culture) was over 10 µM, the IC50 (HsENO2) was 0.36 ± 0.04 µM and the “efficacy against ENO1-deficient tumors” value (ENO1-deficient tumors) was “curative”. The tolerability [1] was “extremely well-tolerated”.
With `CC(C)(C)C(=O)OCOP(=O)(OCOC(=O)C(C)(C)C)C1CCCN(O)C1=O` (stereo not drawn) [POMHEX] the IC50 (T. brucei ENO (TbENO); [5]) was 2.8 ± 0.64 µM, the EC50 (T. brucei BSF parasites; [6]) was 0.61 ± 0.08 µM and the EC50 (T. brucei PF parasites; PF parasites cultured in glucose-free medium, read-out: PF EC50, glucose-free medium) was 5 ± 0.14 µM. For the same compound, the EC50 (T. brucei PF parasites; PF parasites cultured in standard (5 mM) glucose, read-out: PF EC50, standard glucose) was 0.81 ± 0.07 µM, the “ROS levels compared to untreated parasites” value (BSF parasites [2]) was “significant reduction in ROS levels” and the “cell death by PI exclusion, 50 µM” value (BSF parasites [3]; 50 µM) was “did not lead to increased cell death”. For the same compound, the “cell death by PI exclusion, higher concentration” value (BSF parasites [3]; 100 µM) was “increased cell death”, the “decrease of aldolase levels vs vehicle-treated cells” value (T. brucei aldolase) was 28% and the “range of aldolase reduction in three other replicates” value (T. brucei aldolase) was 28-55%. For the same compound, the BSF cell morphology [4] was “rapid change to overall cell shape”, the “PF cellular and glycosomal morphology” value (PF parasites (PF 29-13)) was “remained largely unchanged” and the IC50 (HsENO2) was over 10 µM.
`CC(C)(C)C(=O)OCOP(=O)(OCOC(=O)C(C)(C)C)C1CC(O)N(O)C1=O` (stereo not drawn) [POMSF] showed an EC50 (T. brucei BSF parasites; BSF, two days of culture, read-out: T. brucei BSF EC50) of 0.45 ± 0.1 µM.
For `OO` [hydrogen peroxide, reference compound], the “ROS levels compared to untreated parasites” value (BSF parasites [2]) was “increase in reactive species”.
